Test results as given in paper PMC8160210, “Single tryptophan Y160W mutant of homooligomeric E. coli purine nucleoside phosphorylase implies that dimers forming the hexamer are functionally not equivalent” (Scientific Reports, 2021).
Where two headings read alike, the source gives them in different places.

Target: T1, WT E. coli PNP (Escherichia coli, UniProt P0ABP8)
T1 construct: made in house
T1 sequence (P0ABP8 2-239 limits assumed): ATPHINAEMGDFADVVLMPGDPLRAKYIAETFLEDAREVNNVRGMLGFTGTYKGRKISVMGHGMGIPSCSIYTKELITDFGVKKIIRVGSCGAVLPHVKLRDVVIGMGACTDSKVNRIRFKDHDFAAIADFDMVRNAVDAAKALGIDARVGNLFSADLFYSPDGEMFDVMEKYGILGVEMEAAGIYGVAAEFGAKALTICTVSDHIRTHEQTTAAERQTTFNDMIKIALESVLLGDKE
Test: Fluorescence titrations with phosphate
Details: three-binding-site model, 25 °C
Procedure: All experiments were carried out on the Perkin-Elmer LS55 spectrofluorimeter. Fluorescence spectra were registered using in each case (protein or protein–ligand complex) several excitation wavelengths. Differential spectra were calculated by subtracting spectrum of a protein from the spectrum of the appropriate complex. The negative differential fluorescence intensity means that a decrease of fluorescence upon complex formation is observed. Titrations of the enzyme with phosphate were registered using several excitation and observation wavelengths combinations. When selecting specific wavelengths for such a combination, two criteria were used: (1) the overall change in the fluorescence signal and (2) the complexity of the shape of the titration as the analysis of the multi-phasic curves is more explicit than a uni-phasic curve analysis.
Path length for the excitation was 2 mm and for the emission was 5 mm (half of the cuvette dimensions). A continuous stirring was used during titrations. All measurements were performed at 25 °C. […]
Fluorescence intensity of the WT protein is stable over time, but in the case of the Y160W mutant a slight quenching of fluorescence is observed during titration, which typically lasted about 30 min as the time between each point in the titration was 1 min. Furthermore, adding phosphate during titration stabilises the intrinsic fluorescence of the protein. […] Thus corrected binding curves, F^cor([Pi]), are given by the following equation, in which Fn([Pi]) is the fluorescence intensity measured for the phosphate concentration [Pi], and n is the number of a given titration point in the particular titration:4 FncorPi=FnPi+∑m=1naPim
To check its influence on the intrinsic protein fluorescence, titrations with NaCl were performed, giving dependence F(I). […] Titration curves of the WT protein with phosphate were therefore measured up to 100 mM ionic strength of solution, which is enough to observe a plateau. […] Both F^obs([Pi]) and F(I) were corrected for the time dependent fluorescence quenching, according to Eq. (4), prior to the F^bind([Pi]) calculation. […]

O=P(O)(O)O [Pi, Orthophosphate]
Kd (50 mM Tris/HCl pH 7.6, read-out: Kd1 ± SD): 4.4 µM
Kd (50 mM Tris/HCl pH 7.6, read-out: Kd2 ± SD): 84 µM
Kd (50 mM Tris/HCl pH 7.6, read-out: Kd3 ± SD): 1770 µM
